Measured values reported in patent US7407940B2, “Antimicrobial hexapeptides” (Helix BioMedix Inc., priority 2005, dated 2008).
The star is where a group is joined. Tridecanoyl = CCCCCCCCCCCCC(=O)*; Myristoyl = CCCCCCCCCCCCCC(=O)*; Lauroyl = CCCCCCCCCCCC(=O)*; Nonanoyl = CCCCCCCCC(=O)*; Heptanoyl = CCCCCCC(=O)*

Tests used:
Type in all cases: cell-based
Pseudomonas aeruginosa = tested on: Pseudomonas aeruginosa; parameters: MIC, lipid length SAR: unit not given here; conditions: P.aeruginosa
Experimental: (§1) MICs (minimal inhibitory concentrations) were determined for the hexapeptides of interest using a slightly modified version of the NCCLS (National Committee for Clinical Laboratory Standards) broth microdilution method as described previously (Steinberg et al., AAC 41: 1738, 1997). Briefly, antimicrobial agents were prepared as 10× concentrates in the most appropriate solvent. For the hexapeptide, 0.01% acetic acid containing 0.2% bovine serum albumin as a carrier protein was used. Inocula were prepared by resuspending colonies from a BAP (please spell out this term) in medium and adjusting the suspension to match that of a 0.5 McFarland standard. The suspension was diluted into fresh medium (as recommended by NCCLS for the organism) to give 2×10^5 to 7×10^5 CFU/ml for bacteria or 2×10^3 to 7×10^3 CFU/ml for Candida. After dispensing 100 μl aliquots of the microbial suspension into each well of a 96-well polypropylene microtiter plate, 11 μl of test compound was added. The MIC was defined as the lowest concentration of drug which prevented visible turbidity after 16 to 20 hours (bacteria) or 46 to 50 hours (Candida) at 35° C.

[1] = tested on: Salmonella typhimurium 14028S; experiment: MIC, broth microdilution, S. typhimurium; parameters: unit not given here; conditions: S.typhimurium
Experimental: as §1

P. acnes = experiment: Activity against extended panel of P. acnes; parameters: unit not given here
From the text: A very promising application for short bioactive peptides is for dermatological indications such as acne.

Row | Substance | MIC, lipid length SAR (Pseudomonas aeruginosa) | MIC, lipid length SAR [1] | Activity (MIC) against P. acnes (P. acnes; ATCC 6922) | Activity (MIC) against P. acnes (P. acnes; ATCC 6923) | Activity (MIC) against P. acnes (P. acnes; ATCC 25746) | Activity (MIC) against P. acnes (P. acnes; ATCC 29399) | Activity (MIC) against P. acnes (P. acnes; ATCC 33179) | Activity (MIC) against P. acnes (P. acnes; ATCC 51277)
1 | Lau-KFKWPW-NH2 (Lauroyl-KFKWPW-NH2; SMILES CCCCCCCCCCCC(=O)N[C@@H](CCCCN)C(=O)N[C@@H](Cc1ccccc1)C(=O)N[C@@H](CCCCN)C(=O)N[C@@H](Cc1c[nH]c2ccccc12)C(=O)N1CCC[C@H]1C(=O)N[C@@H](Cc1c[nH]c2ccccc12)C(N)=O) [SEQ ID NO: 72] | 32 | 32 | 1 | 1 | 1 | 2 | 1 | 1
2 | Tri-KFKWPW-NH2 (Tridecanoyl-KFKWPW-NH2; SMILES CCCCCCCCCCCCC(=O)N[C@@H](CCCCN)C(=O)N[C@@H](Cc1ccccc1)C(=O)N[C@@H](CCCCN)C(=O)N[C@@H](Cc1c[nH]c2ccccc12)C(=O)N1CCC[C@H]1C(=O)N[C@@H](Cc1c[nH]c2ccccc12)C(N)=O) [SEQ ID NO: 80] | 32 | 32-64 | – | – | – | – | – | –
3 | Non-KFKWPW-NH2 (Nonanoyl-KFKWPW-NH2; SMILES CCCCCCCCC(=O)N[C@@H](CCCCN)C(=O)N[C@@H](Cc1ccccc1)C(=O)N[C@@H](CCCCN)C(=O)N[C@@H](Cc1c[nH]c2ccccc12)C(=O)N1CCC[C@H]1C(=O)N[C@@H](Cc1c[nH]c2ccccc12)C(N)=O) [SEQ ID NO: 70] | 32-64 | 16 | – | – | – | – | – | –
4 | Hep-KFKWPW-NH2 (Heptanoyl-KFKWPW-NH2; SMILES CCCCCCC(=O)N[C@@H](CCCCN)C(=O)N[C@@H](Cc1ccccc1)C(=O)N[C@@H](CCCCN)C(=O)N[C@@H](Cc1c[nH]c2ccccc12)C(=O)N1CCC[C@H]1C(=O)N[C@@H](Cc1c[nH]c2ccccc12)C(N)=O) [SEQ ID NO: 69] | 128 | 128 | – | – | – | – | – | –
5 | Myr-KFKWPW-NH2 (Myristoyl-KFKWPW-NH2; SMILES CCCCCCCCCCCCCC(=O)N[C@@H](CCCCN)C(=O)N[C@@H](Cc1ccccc1)C(=O)N[C@@H](CCCCN)C(=O)N[C@@H](Cc1c[nH]c2ccccc12)C(=O)N1CCC[C@H]1C(=O)N[C@@H](Cc1c[nH]c2ccccc12)C(N)=O) [SEQ ID NO: 77] | 64-128 | >128 | – | – | – | – | – | –
